# Experimental data: patent publication US20260293896A1, “PLANT GROWTH REGULATOR, PLANT GROWTH ACCELERATION METHOD, OR PLANT GROWTH-REGULATING PRODUCT” (KUREHA CORPORATION, priority 2022, published 2026)
# Assays:
# Assay type in all cases: in vivo
# rapeseed [1] = test: Evaluation Example 3: Comparison of Elongated Plant Height of Rapeseed; settings: petri dish, 5 mL, 24° C, 7th day after seeding, EGT 1 mM and/or Arg 1 mM
# Experimental: The plant growth regulators of Example 6 and Comparative Examples 8 and 9 were prepared so as to attain the concentrations indicated in Table 3 below. EGT and Arg were commercially available products, and pure water was used as a solvent.
# (§1) Into a 9 cm petri dish on which filter paper was spread, 5 mL of the plant growth regulator was added. Seven seeds of rapeseed were sown per one petri dish. In a thermostatic chamber set at room temperature of 24° C., the light period was 16 hours and the dark period was 8 hours. The light conditions were set using a fluorescent lamp (PLANT FLEC, 40 W LED fluorescent lamp for plant growth, electric bulb color, available from Nippon Medical and Chemical Instruments Co., Ltd.) such that the light intensity was 5000 lx in the central part under irradiation with the fluorescent lamp.
# (§2) The plant height of the rapeseed on the 7th day after seeding was evaluated.
# rapeseed [2] = test: Evaluation Example 7: Comparison of Elongated Plant Height of Rapeseed; settings: petri dish, 5 mL, 24° C, 7th day after seeding, EGT 0.5 mM and/or uracil 0.5 mM
# Experimental: The plant growth regulators of Example 18 and Comparative Examples 24 and 25 were prepared so as to attain the concentrations indicated in Table 7 below. EGT and uracil were commercially available products, and pure water was used as a solvent.
# as §1, with “Ten” for “Seven”
# as §2
# wheat [3] = test: Evaluation Example 8: Comparison of Elongated Plant Height of Wheat; settings: petri dish, 5 mL, 24° C, 7th day after seeding, EGT 0.5 mM and/or component (A) 0.5 mM
# Experimental: The plant growth regulators of Examples 19 and 20 and Comparative Examples 26 to 28 were prepared so as to attain the concentrations indicated in Table 8 below. EGT, guanine and thymine were commercially available products, and pure water was used as a solvent.
# as §1, with “Ten” for “Seven”, “wheat” for “rapeseed”
# (§3) The plant height of the wheat on the 7th day after seeding was evaluated.
# wheat [4] = test: Evaluation Example 9: Comparison of Elongated Plant Height of Wheat; settings: petri dish, 5 mL, 24° C, 7th day after seeding, EGT 0.5 mM and/or component (A) 0.5 mM
# Experimental: The plant growth regulators of Examples 21 and 22 and Comparative Examples 29 to 31 were prepared so as to attain the concentrations indicated in Table 9 below. EGT, trehalose and inositol were commercially available products, and pure water was used as a solvent.
# as §1, with “Ten” for “Seven”, “wheat” for “rapeseed”
# as §3
# tomato (Micro Tom) = test: Evaluation Example 12: Comparison of Number of Flowers and Buds of Tomato; settings: 50 mL on 32nd, 34th, 36th days, evaluated 83rd day after seeding, EGT 0.1 mM and/or component (A) 0.1 mM
# Experimental: The plant growth regulators of Examples 32 and 33 and Comparative Examples 43 to 45 were prepared so as to attain the concentrations indicated in Table 12 below. EGT, Arg and Glu were commercially available products, and pure water was used as a solvent.
# In a plastic pot having a diameter of 135 mm and a height of 110 mm, 1 kg of granular soil (Kumiai horticultural soil) was placed, and one individual tomato (Micro Tom) was sown per one pot.
# The tomato was managed in a greenhouse set at room temperature of 25° C. Chemical treatment was started 5 weeks after seeding. More specifically, on the 32nd, 34th, and 36th days after seeding, 50 mL of the plant growth regulator was added.
# On the 83rd day after seeding, the number of flowers and buds was evaluated.
# wheat [5] = test: Evaluation Example 15: Comparison of Elongated Plant Height of Wheat; settings: petri dish, 5 mL, 24° C, 7th day after seeding, EGT 1 mM and/or carnitine 10 mM
# Experimental: The plant growth regulators of Example 36 and Comparative Examples 50 and 51 were prepared so as to attain the concentrations indicated in Table 15 below. EGT and carnitine were commercially available products, and pure water was used as a solvent.
# as §1, with “Ten” for “Seven”, “wheat” for “rapeseed”
# as §3
# wheat [6] = test: Evaluation Example 16: Comparison of Elongated Plant Height of Wheat; settings: petri dish, 5 mL, 24° C, 7th day after seeding, EGT 1 mM and/or trehalose 0.01 or 0.1 mM
# Experimental: The plant growth regulators of Examples 37 and 38 and Comparative Examples 52 to 54 were prepared so as to attain the concentrations indicated in Table 16 below. EGT and trehalose were commercially available products, and pure water was used as a solvent.
# as §1, with “Ten” for “Seven”, “wheat” for “rapeseed”
# as §3
compound,measurement,setting,value
"C[N+](C)(C)[C@@H](Cc1c[nH]c(=S)[nH]1)C(=O)[O-] [Comparative Example 8, L-(+)-ergothioneine]","Elongated plant height, ratio to untreated control",rapeseed [1],1.2
"N=C(N)NCCC[C@H](N)C(=O)O [Comparative Example 9, L-arginine]","Elongated plant height, ratio to untreated control",rapeseed [1],0.9
"C[N+](C)(C)[C@@H](Cc1c[nH]c(=S)[nH]1)C(=O)[O-] [Comparative Example 24, L-(+)-ergothioneine]","Elongated plant height, ratio to untreated control",rapeseed [2],1.1
"O=c1cc[nH]c(=O)[nH]1 [Comparative Example 25, uracil]","Elongated plant height, ratio to untreated control",rapeseed [2],1.0
"C[N+](C)(C)[C@@H](Cc1c[nH]c(=S)[nH]1)C(=O)[O-] [Comparative Example 26, L-(+)-ergothioneine]","Elongated plant height, ratio to untreated control",wheat [3],1.1
"C[N+](C)(C)[C@@H](Cc1c[nH]c(=S)[nH]1)C(=O)[O-] [Comparative Example 29, L-(+)-ergothioneine]","Elongated plant height, ratio to untreated control",wheat [4],1.1
"C[N+](C)(C)[C@@H](Cc1c[nH]c(=S)[nH]1)C(=O)[O-] [Comparative Example 43, L-(+)-ergothioneine]","Total number of flowers and buds, ratio to untreated control",tomato (Micro Tom),1.1
"C[N+](C)(C)[C@@H](Cc1c[nH]c(=S)[nH]1)C(=O)[O-] [Comparative Example 50, L-(+)-ergothioneine]","Elongated plant height, ratio to untreated control",wheat [5],1.1
"C[N+](C)(C)CC(O)CC(=O)[O-] (stereo not drawn) [Comparative Example 51, carnitine]","Elongated plant height, ratio to untreated control",wheat [5],1.0
"C[N+](C)(C)[C@@H](Cc1c[nH]c(=S)[nH]1)C(=O)[O-] [Comparative Example 52, L-(+)-ergothioneine]","Elongated plant height, ratio to untreated control",wheat [6],1.1
"Nc1nc2nc[nH]c2c(=O)[nH]1 [compound 27, guanine]","Elongated plant height, ratio to untreated control",wheat [3],0.9
"Cc1c[nH]c(=O)[nH]c1=O [compound 28, thymine]","Elongated plant height, ratio to untreated control",wheat [3],0.9
"OC[C@H]1O[C@H](O[C@H]2O[C@H](CO)[C@@H](O)[C@H](O)[C@H]2O)[C@H](O)[C@@H](O)[C@@H]1O [compound 30, trehalose]","Elongated plant height, ratio to untreated control",wheat [4],1.0
"O[C@H]1[C@H](O)[C@@H](O)[C@H](O)[C@@H](O)[C@H]1O [compound 31, inositol]","Elongated plant height, ratio to untreated control",wheat [4],0.9
"N=C(N)NCCC[C@H](N)C(=O)O [compound 44, L-arginine]","Total number of flowers and buds, ratio to untreated control",tomato (Micro Tom),1.0
"N[C@@H](CCC(=O)O)C(=O)O [compound 45, L-glutamic acid]","Total number of flowers and buds, ratio to untreated control",tomato (Micro Tom),1.0
"OC[C@H]1O[C@H](O[C@H]2O[C@H](CO)[C@@H](O)[C@H](O)[C@H]2O)[C@H](O)[C@@H](O)[C@@H]1O [compound 53, trehalose]","Elongated plant height, ratio to untreated control",wheat [6],1.0
"OC[C@H]1O[C@H](O[C@H]2O[C@H](CO)[C@@H](O)[C@H](O)[C@H]2O)[C@H](O)[C@@H](O)[C@@H]1O [compound 54, trehalose]","Elongated plant height, ratio to untreated control",wheat [6],0.9
